According to patent publication US3956338A, “4,6-Dibromo-5-hydroxy-2-pyridine nitrile compounds and method of preparation” (The Dow Chemical Company, priority 1975, dated 1976):

Columns and labels:
[1] = system: Barnyard Grass; assay: Post-emergent herbicide evaluation (Table I); format: in vivo; conditions: 4000 ppm, 2 weeks after treatment
Method: (§1) Pots are filled with a sandy soil, and plants of any species considered appropriate (such as pigweed, field bindweed, velvet leaf, cotton, barnyard grass, foxtail, wild oat, and crabgrass) are grown to an average height of 2 to 4 inches. Plants are then sprayed to run-off with an aqueous solution or dispersion containing the test chemical at the desired concentration. The plants are maintained in the greenhouse and are sub-irrigated as necessary. Final readings are made 2 weeks after treatment. Readings represent the percent kill or control of growth on the treated plants when compared to untreated plants, with 0 = no visible effects and 100 = all plants dead. Compounds found active are subsequently tested over a range of rates which are less than the initial rate. The procedure is the same as described above except that additional species (such as soybean, corn, wheat, ragweed, Johnson grass, etc.) are used. Additionally, test chemicals may be applied to the soil surface by drenching or as a solid to preclude contact with foliage. If foliage is sprayed, the pots are subsequently maintained by sub-irrigation; if chemical application is made to the soil, the pots are top-watered.

[2] = system: Beans; assay: Post-emergent herbicide evaluation (Table I); format: in vivo; conditions: 4000 ppm, 2 weeks after treatment
Method: as §1

[3] = system: Corn; assay: Post-emergent herbicide evaluation (Table I); format: in vivo; conditions: 4000 ppm, 2 weeks after treatment
Method: as §1

[4] = system: Cotton; assay: Post-emergent herbicide evaluation (Table I); format: in vivo; conditions: 4000 ppm, 2 weeks after treatment
Method: as §1

[5] = system: Crabgrass; assay: Post-emergent herbicide evaluation (Table I); format: in vivo; conditions: 4000 ppm, 2 weeks after treatment
Method: as §1

[6] = system: Cultured Rice; assay: Post-emergent herbicide evaluation (Table I); format: in vivo; conditions: 4000 ppm, 2 weeks after treatment
Method: as §1

[7] = system: German Millet; assay: Post-emergent herbicide evaluation (Table I); format: in vivo; conditions: 4000 ppm, 2 weeks after treatment
Method: as §1

[8] = system: Morning Glory; assay: Post-emergent herbicide evaluation (Table I); format: in vivo; conditions: 2000 ppm, 2 weeks after treatment
Method: as §1

[9] = system: Pigweeds; assay: Post-emergent herbicide evaluation (Table I); format: in vivo; conditions: 1000 ppm, 2 weeks after treatment
Method: as §1

[10] = system: Rape; assay: Post-emergent herbicide evaluation (Table I); format: in vivo; conditions: 1000 ppm, 2 weeks after treatment
Method: as §1

[11] = system: Sorghum/Milo; assay: Post-emergent herbicide evaluation (Table I); format: in vivo; conditions: 4000 ppm, 2 weeks after treatment
Method: as §1

[12] = system: Soybeans; assay: Post-emergent herbicide evaluation (Table I); format: in vivo; conditions: 4000 ppm, 2 weeks after treatment
Method: as §1

[13] = system: Velvet Leaf; assay: Post-emergent herbicide evaluation (Table I); format: in vivo; conditions: 2 weeks after treatment
Method: as §1

[14] = system: White Winter Wheat; assay: Post-emergent herbicide evaluation (Table I); format: in vivo; conditions: 2000 ppm, 2 weeks after treatment
Method: as §1

[15] = system: Wild Oats; assay: Post-emergent herbicide evaluation (Table I); format: in vivo; conditions: 4000 ppm, 2 weeks after treatment
Method: as §1

[16] = system: Yellow Foxtail; assay: Post-emergent herbicide evaluation (Table I); format: in vivo; conditions: 4000 ppm, 2 weeks after treatment
Method: as §1

[17] = system: Barnyard Grass; assay: Pre-emergent herbicide evaluation (Table II); format: in vivo; conditions: 10 Lbs/Acre, about 2 weeks after treatment
Description: (§2) Pots are filled to within 1 inch of the top with a medium-textured soil and seeds of any species considered appropriate (such as pigweed, field bindweed, velvet leaf, cotton, barnyard grass, foxtail, wild oat and crabgrass) are sown in their appropriate area. The seeds are then covered with a 1/2 inch layer of a sandy soil and test chemicals formulated at the desired concentration are drenched onto the soil surface in sufficient volume to wet the top 11/2 to 2 inches of soil. The pots are maintained in the greenhouse and are top-watered as necessary. Final readings are made about 2 weeks after treatment, the exact time depending upon the rate of plant growth. Readings are based on the germination and the growth of treated plants compared with that of untreated plants. Readings of 0% = no visible effects and 100% = all plants dead.
(§3) Compounds found active are subsequently tested over a range of rates which are less than the initial rate. The procedure is the same as described above with the exceptions that the seeds of appropriate species (such as soybean, corn, wheat, ragweed, Johnson grass, etc.) are covered with the same medium-textured soil used to fill the pot, and the chemicals are sprayed onto the soil surface at the desired rate in sufficient volume to cover and wet the soil surface. The pots are maintained, top-watered, and graded as described above.

[18] = system: Beans; assay: Pre-emergent herbicide evaluation (Table II); format: in vivo; conditions: 10 Lbs/Acre, about 2 weeks after treatment
Description: as §2, §3

[19] = system: Bindweed; assay: Pre-emergent herbicide evaluation (Table II); format: in vivo; conditions: 10 Lbs/Acre, about 2 weeks after treatment
Description: as §2, §3

[20] = system: Corn; assay: Pre-emergent herbicide evaluation (Table II); format: in vivo; conditions: 4 Lbs/Acre, about 2 weeks after treatment
Description: as §2, §3

[21] = system: Cotton; assay: Pre-emergent herbicide evaluation (Table II); format: in vivo; conditions: about 2 weeks after treatment
Description: as §2, §3

[22] = system: Crabgrass; assay: Pre-emergent herbicide evaluation (Table II); format: in vivo; conditions: 10 Lbs/Acre, about 2 weeks after treatment
Description: as §2, §3

[23] = system: Cultured Rice; assay: Pre-emergent herbicide evaluation (Table II); format: in vivo; conditions: about 2 weeks after treatment
Description: as §2, §3

[24] = system: German Millet; assay: Pre-emergent herbicide evaluation (Table II); format: in vivo; conditions: 2 Lbs/Acre, about 2 weeks after treatment
Description: as §2, §3

[25] = system: Johnson Grass; assay: Pre-emergent herbicide evaluation (Table II); format: in vivo; conditions: 4 Lbs/Acre, about 2 weeks after treatment
Description: as §2, §3

[26] = system: Morning Glory; assay: Pre-emergent herbicide evaluation (Table II); format: in vivo; conditions: 4 Lbs/Acre, about 2 weeks after treatment
Description: as §2, §3

[27] = system: Pigweeds; assay: Pre-emergent herbicide evaluation (Table II); format: in vivo; conditions: 2 Lbs/Acre, about 2 weeks after treatment
Description: as §2, §3

[28] = system: Rape; assay: Pre-emergent herbicide evaluation (Table II); format: in vivo; conditions: 4 Lbs/Acre, about 2 weeks after treatment
Description: as §2, §3

[29] = system: Sorghum/Milo; assay: Pre-emergent herbicide evaluation (Table II); format: in vivo; conditions: about 2 weeks after treatment
Description: as §2, §3

[30] = system: Soybean; assay: Pre-emergent herbicide evaluation (Table II); format: in vivo; conditions: 4 Lbs/Acre, about 2 weeks after treatment
Description: as §2, §3

[31] = system: Velvet Leaf; assay: Pre-emergent herbicide evaluation (Table II); format: in vivo; conditions: 10 Lbs/Acre, about 2 weeks after treatment
Description: as §2, §3

[32] = system: White Winter Wheat; assay: Pre-emergent herbicide evaluation (Table II); format: in vivo; conditions: 4 Lbs/Acre, about 2 weeks after treatment
Description: as §2, §3

[33] = system: Wild Oats; assay: Pre-emergent herbicide evaluation (Table II); format: in vivo; conditions: about 2 weeks after treatment
Description: as §2, §3

[34] = system: Yellow Foxtail; assay: Pre-emergent herbicide evaluation (Table II); format: in vivo; conditions: 10 Lbs/Acre, about 2 weeks after treatment
Description: as §2, §3

[35] = system: Bindweed; assay: Comparison with BROMINIL as post-emergent herbicide; format: in vivo; conditions: post-emergence; post-emergent spray, 0.2% Tween 20, 300 gallons per acre; read-out: Concentration Required for adequate control
Method: (§4) All plants were grown in a greenhouse and sprayed with the test solution when they attained 1 to 2 inches in height. The test solutions were made up in water, using a 0.2% Tween 20 surfactant (polyoxyethylene derivative of a fatty acid partial ester of sorbitol) and were applied in a total spray volume equivalent to 300 gallons per acre.

[36] = system: Buckwheat; assay: as above; format: in vivo; conditions: post-emergence; post-emergent spray, 0.2% Tween 20, 300 gallons per acre; read-out: Concentration Required for adequate control
Method: as §4

[37] = system: Morning Glory; assay: as above; format: in vivo; conditions: Ipomoea, post-emergence; post-emergent spray, 0.2% Tween 20, 300 gallons per acre; read-out: Concentration Required for adequate control
Method: as §4

[38] = system: Wheat; assay: as above; format: in vivo; conditions: Triticum aestivum, post-emergence; post-emergent spray, 0.2% Tween 20, 300 gallons per acre; read-out: Concentration: minimum required for injury of wheat
Method: as §4

[39] = system: Wild Mustard; assay: as above; format: in vivo; conditions: Brassica, post-emergence; post-emergent spray, 0.2% Tween 20, 300 gallons per acre; read-out: Concentration Required for adequate control
Method: as §4

[40] = system: Wild Oats; assay: as above; format: in vivo; conditions: for minimal effective concentration: Avena fatua, post-emergence, post-emergent spray, 0.2% Tween 20, 300 gallons per acre, read-out: Concentration Required for adequate control
Method: as §4

[41] = system: plants; assay: Comparison with BROMINIL as post-emergent herbicide, overall; format: in vivo; conditions: Example 2(C)
Method: as §4

[42] = system: weeds; assay: Post- and pre-emergent herbicide evaluation, weeds overall; format: in vivo; conditions: Examples 2(A) and 2(B)
Method: as §1, with “The procedure is the same as described above except that additional species (such as soybean, corn, wheat, ragweed, Johnson grass, etc.) are used. Additionally, test chemicals may be applied to the soil surface by drenching or as a solid to preclude contact with foliage. If foliage is sprayed, the pots are subsequently maintained by sub-irrigation; if chemical application is made to the soil, the pots are top-watered.” left out
(§5) Pots are filled to within 1 inch of the top with a medium-textured soil and seeds of any species considered appropriate (such as pigweed, field bindweed, velvet leaf, cotton, barnyard grass, foxtail, wild oat and crabgrass) are sown in their appropriate area. […] Final readings are made about 2 weeks after treatment, the exact time depending upon the rate of plant growth. Readings are based on the germination and the growth of treated plants compared with that of untreated plants. Readings of 0% = no visible effects and 100% = all plants dead. […]

[43] = system: crop plants; assay: Post- and pre-emergent herbicide evaluation, crop plants overall; format: in vivo; conditions: at concentrations effective for weed control
Method: as §1, with “The procedure is the same as described above except that additional species (such as soybean, corn, wheat, ragweed, Johnson grass, etc.) are used. Additionally, test chemicals may be applied to the soil surface by drenching or as a solid to preclude contact with foliage. If foliage is sprayed, the pots are subsequently maintained by sub-irrigation; if chemical application is made to the soil, the pots are top-watered.” left out
as §5

[44] = system: two-spotted spider mites; assay: Standard screening test, control of two-spotted spider mites; format: in vivo; conditions: 400 parts per million
[45] = system: Staphylococcus aureus; assay: Standard screening test, growth inhibition of microorganism; format: cell-based; conditions: 500 ppm
[46] = Solubility; format: physicochemical

N#Cc1cc(Br)c(O)c(Br)n1 [4,6-dibromo-5-hydroxy-2-pyridine nitrile]
Percent Control [1]: 75%
Percent Control [2]: 70%
Percent Control [3]: 0%
Percent Control [4]: 100%
Percent Control [5]: 100%
Percent Control [6]: 0%
Percent Control [7]: 85%
Percent Control [8]: 100%
Percent Control [9]: 100%
Percent Control [10]: 100%
Percent Control [11]: 0%
Percent Control [12]: 0%
Percent Control ([13]; 1000 ppm): 85%
Percent Control ([13]; 2000 ppm): 100%
Percent Control [14]: 0%
Percent Control [15]: 65%
Percent Control [16]: 70%
% Control [17]: 40%
% Control [18]: 60%
% Control [19]: 25%
% Control [20]: 20%
% Control ([21]; 4 Lbs/Acre): 0%
% Control ([21]; 10 Lbs/Acre): 100%
% Control [22]: 50%
% Control ([23]; 2 Lbs/Acre): 0%
% Control ([23]; 4 Lbs/Acre): 15%
% Control [24]: 40%
% Control [25]: 0%
% Control [26]: 15%
% Control [27]: 100%
% Control [28]: 25%
% Control ([29]; 2 Lbs/Acre): 0%
% Control ([29]; 4 Lbs/Acre): 15%
% Control [30]: 0%
% Control [31]: 40%
% Control [32]: 0%
% Control ([33]; 4 Lbs/Acre): 70%
% Control ([33]; 10 Lbs/Acre): 85%
% Control [34]: 80%
minimal effective concentration [35]: 4000 µg/mL
minimal effective concentration [36]: 250 µg/mL
minimal effective concentration [37]: 1000 µg/mL
minimal effective concentration [38]: 2000 µg/mL
minimal effective concentration [39]: 62 µg/mL
minimal effective concentration [40]: 500 µg/mL
times more active than BROMINIL against wild oats ([40]; post-emergent, relative to BROMINIL): 8 times
general activity relative to BROMINIL [41]: generally less active than BROMINIL
herbicidal activity against weeds [42]: moderately active herbicide against weeds
activity against most crop plants [43]: low or nil activity against most crop plants
control of two-spotted spider mites [44]: 100%
growth inhibition of Staphylococcus aureus [45]: inhibited growth
solubility in the common organic solvents ([46]; common organic solvents): soluble in the common organic solvents
solubility in water ([46]; water): essentially insoluble in water

N#Cc1cc(Br)c(O)c(Br)c1 [BROMINIL, 3,5-dibromo-4-hydroxy benzonitrile]
minimal effective concentration [35]: 500 µg/mL
minimal effective concentration [36]: 16 µg/mL
minimal effective concentration [37]: 16 µg/mL
minimal effective concentration [38]: 4000 µg/mL
minimal effective concentration [39]: 16 µg/mL
minimal effective concentration [40]: > 4000 µg/mL
